# Patent US7851474B2, “Dipiperazinyl ketones and related analogues” (Neurogen Corporation, priority 2005, dated 2010)
# Target: T1, chimeric human H3 receptor (Homo sapiens, UniProt Q9Y5N1, E19D)
# T1 construct: made in house; host or cells: Sf9 insect cells (baculovirus infection); P2 membrane preparation
# Experiment: Chimeric human H3 receptor GTP binding assay (agonist-stimulated GTP-gamma35S binding, Example 7)
# Assay type: biochemical
# Details: not given
# Outline: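 IC50 values come from non-linear regression of dose-response curves of filter-bound GTP-gamma^35S, counted by scintillation. Membranes were from infected Sf9 cells carrying receptor plus G-protein subunits, 35 μg/tube, with 10 μM GDP present.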
# T1 sequence (Q9Y5N1 with tags, fused parts or gaps E19D): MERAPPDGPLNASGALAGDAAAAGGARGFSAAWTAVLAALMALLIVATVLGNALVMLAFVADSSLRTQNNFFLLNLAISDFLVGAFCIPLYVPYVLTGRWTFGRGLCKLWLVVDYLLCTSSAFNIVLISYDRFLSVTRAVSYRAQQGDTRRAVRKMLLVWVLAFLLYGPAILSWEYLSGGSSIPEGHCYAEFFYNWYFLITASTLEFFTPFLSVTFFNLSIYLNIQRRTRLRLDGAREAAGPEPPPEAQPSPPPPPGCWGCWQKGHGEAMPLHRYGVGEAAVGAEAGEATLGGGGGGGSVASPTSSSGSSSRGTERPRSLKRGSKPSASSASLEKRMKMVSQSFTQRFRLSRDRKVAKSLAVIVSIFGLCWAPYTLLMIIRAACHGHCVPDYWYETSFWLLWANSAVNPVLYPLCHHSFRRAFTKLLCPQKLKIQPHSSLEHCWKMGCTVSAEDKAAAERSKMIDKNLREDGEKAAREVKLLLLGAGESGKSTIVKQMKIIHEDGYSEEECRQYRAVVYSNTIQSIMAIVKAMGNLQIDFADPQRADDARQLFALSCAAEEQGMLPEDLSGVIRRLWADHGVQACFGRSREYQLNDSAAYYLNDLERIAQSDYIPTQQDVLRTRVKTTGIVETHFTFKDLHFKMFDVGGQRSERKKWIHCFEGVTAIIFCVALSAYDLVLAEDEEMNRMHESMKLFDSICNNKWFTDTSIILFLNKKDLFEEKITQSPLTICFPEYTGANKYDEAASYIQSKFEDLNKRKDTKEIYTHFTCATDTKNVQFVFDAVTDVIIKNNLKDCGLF
row,Compound,Ki
1,"O=C(CN1CCN(c2cccc(C(F)(F)F)c2)CC1)N1CCN(C2CCCC2)CC1 [Compound 827, 1-cyclopentyl-4-({4-[3-(trifluoromethyl)phenyl]piperazin-1-yl}acetyl)piperazine]",< 1000 nM
2,"O=C(CN1CCN(c2ccc(F)c(C(F)(F)F)c2)CC1)N1CCN(C2CCCC2)CC1 [Compound 830, 1-cyclopentyl-4-({4-[4-fluoro-3-(trifluoromethyl)phenyl]piperazin-1-yl}acetyl)piperazine]",< 1000 nM
3,"CCN1CCN(C(=O)CN2CCN(c3ccc(C(F)(F)F)cc3)CC2)CC1 [Compound 842, 1-ethyl-4-({4-[4-(trifluoromethyl)phenyl]piperazin-1-yl}acetyl)piperazine]",< 1000 nM
4,"CCN1CCN(C(=O)CN2CCN(c3ccc(OC)cc3)CC2)CC1 [Compound 843, 1-ethyl-4-{[4-(4-methoxyphenyl)piperazin-1-yl]acetyl}piperazine]",< 1000 nM
5,"CC(C)N1CCN(C(=O)CN2CCN(c3ccccc3)CC2)CC1 [Compound 847, 1-isopropyl-4-[(4-phenylpiperazin-1-yl)acetyl]piperazine]",< 1000 nM
6,"CCC(C)N1CCN(C(=O)CN2CCN(c3ccccc3F)CC2)CC1 (centres unmarked) [Compound 867, 1-sec-butyl-4-{[4-(2-fluorophenyl)piperazin-1-yl]acetyl}piperazine]",< 1000 nM
7,"CCC(C)N1CCN(C(=O)CN2CCN(c3ccccc3C)CC2)CC1 (centres unmarked) [Compound 868, 1-sec-butyl-4-{[4-(2-methylphenyl)piperazin-1-yl]acetyl}piperazine]",< 1000 nM
8,"CCC(C)N1CCN(C(=O)CN2CCN(c3cccc(Cl)c3)CC2)CC1 (centres unmarked) [Compound 873, 1-sec-butyl-4-{[4-(3-chlorophenyl)piperazin-1-yl]acetyl}piperazine]",< 1000 nM

# Same assay, conditions: Table II "Ki", symbol "*": Ki in the assay of Example 7; read-out: Ki
row,Ki,Compound
1,< 1000 nM,"O=C(CN1CCN(C(=O)C2CCCO2)CC1)N1CCN(C2CCCCC2)CC1 (centres unmarked) [Compound 826, 1-cyclohexyl-4-{[4-(tetrahydrofuran-2-ylcarbonyl)piperazin-1-yl]acetyl}piperazine]"
2,< 1000 nM,"CS(=O)(=O)c1ccc(N2CCN(CC(=O)N3CCN(C4CCCC4)CC3)CC2)cc1 [Compound 828, 1-cyclopentyl-4-({4-[4-(methylsulfonyl)phenyl]piperazin-1-yl}acetyl)piperazine]"
3,< 1000 nM,"O=C(CN1CCN(c2ccc(C(F)(F)F)cc2)CC1)N1CCN(C2CCCC2)CC1 [Compound 829, 1-cyclopentyl-4-({4-[4-(trifluoromethyl)phenyl]-1-piperazinyl}acetyl) piperazine]"
4,< 1000 nM,"O=C(CN1CCN(c2cccc(Cl)c2Cl)CC1)N1CCN(C2CCCC2)CC1 [Compound 831, 1-cyclopentyl-4-{[4-(2,3-dichlorophenyl)piperazin-1-yl]acetyl}piperazine]"
5,< 1000 nM,"Cc1ccc(N2CCN(CC(=O)N3CCN(C4CCCC4)CC3)CC2)c(C)c1 [Compound 834, 1-cyclopentyl-4-{[4-(2,4-dimethylphenyl)piperazin-1-yl]acetyl}piperazine]"
6,< 1000 nM,"Cc1cccc(C)c1N1CCN(CC(=O)N2CCN(C3CCCC3)CC2)CC1 [Compound 835, 1-cyclopentyl-4-{[4-(2,6-dimethylphenyl)piperazin-1-yl]acetyl}piperazine]"
7,< 1000 nM,"COc1ccc(N2CCN(CC(=O)N3CCN(C4CCCC4)CC3)CC2)cc1OC [Compound 836, 1-cyclopentyl-4-{[4-(3,4-dimethoxyphenyl)piperazin-1-yl]acetyl}piperazine]"
8,< 1000 nM,"Cc1ccc(N2CCN(CC(=O)N3CCN(C4CCCC4)CC3)CC2)cc1C [Compound 837, 1-cyclopentyl-4-{[4-(3,4-dimethylphenyl)piperazin-1-yl]acetyl}piperazine]"
9,< 1000 nM,"O=C(CN1CCN(c2cc(Cl)cc(Cl)c2)CC1)N1CCN(C2CCCC2)CC1 [Compound 838, 1-cyclopentyl-4-{[4-(3,5-dichlorophenyl)piperazin-1-yl]acetyl}piperazine]"
10,< 1000 nM,"COc1ccc(N2CCN(CC(=O)N3CCN(C4CCCC4)CC3)CC2)cc1 [Compound 839, 1-cyclopentyl-4-{[4-(4-methoxyphenyl)piperazin-1-yl]acetyl}piperazine]"
11,< 1000 nM,"O=C(CN1CCN(c2ccc([N+](=O)[O-])cc2)CC1)N1CCN(C2CCCC2)CC1 [Compound 840, 1-cyclopentyl-4-{[4-(4-nitrophenyl)piperazin-1-yl]acetyl}piperazine]"
12,< 1000 nM,"O=C(CN1CCN(C(=O)C2CCCO2)CC1)N1CCN(C2CCCC2)CC1 (centres unmarked) [Compound 841, 1-cyclopentyl-4-{[4-(tetrahydrofuran-2-ylcarbonyl)piperazin-1-yl]acetyl}piperazine]"
13,< 1000 nM,"CC(C)N1CCN(C(=O)CN2CCN(c3ccc(C(F)(F)F)cc3)CC2)CC1 [Compound 845, 1-isopropyl-4-({4-[4-(trifluoromethyl)phenyl]piperazin-1-yl}acetyl)piperazine]"
14,< 1000 nM,"CC(C)N1CCN(C(=O)CN2CCN(c3ccc(C(F)(F)F)cn3)CC2)CC1 [Compound 846, 1-isopropyl-4-({4-[5-(trifluoromethyl)pyridin-2-yl]piperazin-1-yl}acetyl)piperazine]"
15,< 1000 nM,"Cc1ccc(N2CCN(CC(=O)N3CCN(C(C)C)CC3)CC2)cc1 [Compound 850, 1-isopropyl-4-{[4-(4-methylphenyl)piperazin-1-yl]acetyl}piperazine]"
16,< 1000 nM,"CC(C)N1CCN(C(=O)CN2CCN(c3ccc([N+](=O)[O-])cc3)CC2)CC1 [Compound 851, 1-isopropyl-4-{[4-(4-nitrophenyl)piperazin-1-yl]acetyl}piperazine]"
17,< 1000 nM,"CC(C)N1CCN(C(=O)CN2CCN(C(=O)C3CCCO3)CC2)CC1 (centres unmarked) [Compound 852, 1-isopropyl-4-{[4-(tetrahydrofuran-2-ylcarbonyl)piperazin-1-yl]acetyl}piperazine]"
18,< 1000 nM,"CCC(C)N1CCN(C(=O)CN2CCN(c3cccc(C(F)(F)F)c3)CC2)CC1 (centres unmarked) [Compound 853, 1-sec-butyl-4-({4-[3-(trifluoromethyl)phenyl]piperazin-1-yl}acetyl)piperazine]"

row,Ki,Compound
1,< 1000 nM,"CCC(C)N1CCN(C(=O)CN2CCN(c3ccc(C(F)(F)F)cc3)CC2)CC1 (centres unmarked) [Compound 854, 1-sec-butyl-4-({4-[4-(trifluoromethyl)phenyl]piperazin-1-yl}acetyl)piperazine]"
2,< 1000 nM,"CCC(C)N1CCN(C(=O)CN2CCN(c3ccc(Cl)c(C(F)(F)F)c3)CC2)CC1 (centres unmarked) [Compound 855, 1-sec-butyl-4-({4-[4-chloro-3-(trifluoromethyl)phenyl]piperazin-1-yl}acetyl)piperazine]"
3,< 1000 nM,"CCC(C)N1CCN(C(=O)CN2CCN(c3ccc(F)c(C(F)(F)F)c3)CC2)CC1 (centres unmarked) [Compound 856, 1-sec-butyl-4-({4-[4-fluoro-3-(trifluoromethyl)phenyl]piperazin-1-yl}acetyl)piperazine]"
4,< 1000 nM,"CCC(C)N1CCN(C(=O)CN2CCN(c3ccccc3)CC2)CC1 (centres unmarked) [Compound 857, 1-sec-butyl-4-[(4-phenylpiperazin-1-yl)acetyl]piperazine]"
5,< 1000 nM,"CCC(C)N1CCN(C(=O)CN2CCC(N3CCCC3)CC2)CC1 (centres unmarked) [Compound 858, 1-sec-butyl-4-[(4-pyrrolidin-1-ylpiperidin-1-yl)acetyl]piperazine]"
6,< 1000 nM,"CCC(C)N1CCN(C(=O)CN2CCN(c3cccc(Cl)c3Cl)CC2)CC1 (centres unmarked) [Compound 859, 1-sec-butyl-4-{[4-(2,3-dichlorophenyl)piperazin-1-yl]acetyl}piperazine]"
7,< 1000 nM,"CCC(C)N1CCN(C(=O)CN2CCN(c3cccc(C)c3C)CC2)CC1 (centres unmarked) [Compound 860, 1-sec-butyl-4-{[4-(2,3-dimethylphenyl)piperazin-1-yl]acetyl}piperazine]"
8,< 1000 nM,"CCC(C)N1CCN(C(=O)CN2CCN(c3ccc(F)cc3F)CC2)CC1 (centres unmarked) [Compound 861, 1-sec-butyl-4-{[4-(2,4-difluorophenyl)piperazin-1-yl]acetyl}piperazine]"
9,< 1000 nM,"CCC(C)N1CCN(C(=O)CN2CCN(c3ccc(OC)cc3OC)CC2)CC1 (centres unmarked) [Compound 862, 1-sec-butyl-4-{[4-(2,4-dimethoxyphenyl)piperazin-1-yl]acetyl}piperazine]"
10,< 1000 nM,CCC(C)N1CCN(C(=O)CN2CCN(c3ccc(C)cc3C)CC2)CC1 (centres unmarked) [Compound 863]
11,< 1000 nM,"CCC(C)N1CCN(C(=O)CN2CCN(c3cc(C)ccc3C)CC2)CC1 (centres unmarked) [Compound 864, 1-sec-butyl-4-{[4-(2,5-dimethylphenyl)piperazin-1-yl]acetyl}piperazine]"
12,< 1000 nM,"CCC(C)N1CCN(C(=O)CN2CCN(c3c(C)cccc3C)CC2)CC1 (centres unmarked) [Compound 865, 1-sec-butyl-4-{[4-(2,6-dimethylphenyl)piperazin-1-yl]acetyl}piperazine]"
13,< 1000 nM,"CCC(C)N1CCN(C(=O)CN2CCN(c3ccccc3Cl)CC2)CC1 (centres unmarked) [Compound 866, 1-sec-butyl-4-{[4-(2-chlorophenyl)piperazin-1-yl]acetyl}piperazine]"
14,< 1000 nM,"CCC(C)N1CCN(C(=O)CN2CCN(c3ccc(Cl)c(Cl)c3)CC2)CC1 (centres unmarked) [Compound 869, 1-sec-butyl-4-{[4-(3,4-dichlorophenyl)piperazin-1-yl]acetyl}piperazine]"
15,< 1000 nM,"CCC(C)N1CCN(C(=O)CN2CCN(c3ccc(OC)c(OC)c3)CC2)CC1 (centres unmarked) [Compound 870, 1-sec-butyl-4-{[4-(3,4-dimethoxyphenyl)piperazin-1-yl]acetyl}piperazine]"
16,< 1000 nM,"CCC(C)N1CCN(C(=O)CN2CCN(c3ccc(C)c(C)c3)CC2)CC1 (centres unmarked) [Compound 871, 1-sec-butyl-4-{[4-(3,4-dimethylphenyl)piperazin-1-yl]acetyl}piperazine]"
17,< 1000 nM,"CCC(C)N1CCN(C(=O)CN2CCN(c3cc(Cl)cc(Cl)c3)CC2)CC1 (centres unmarked) [Compound 872, 1-sec-butyl-4-{[4-(3,5-dichlorophenyl)piperazin-1-yl]acetyl}piperazine]"
18,< 1000 nM,"CCC(C)N1CCN(C(=O)CN2CCN(c3cccc(F)c3)CC2)CC1 (centres unmarked) [Compound 874, 1-sec-butyl-4-{[4-(3-fluorophenyl)piperazin-1-yl]acetyl}piperazine]"
